pKi: −log10 of the molar value. Read-outs that look alike come from different tables or passages of the source.
Tests used:
[1] = tested on: L-5-Hydroxytryptamine (L-5-HTP); experiment: L-5-HTP antagonism (serotonin antagonism); assay type: in vivo, rats; details: oral, rat; for ED50: 1 h before L-5-HTP (316 mg/kg i.p.), 50% mean reduction in score, read-out: Antiserotoninergic action rat ED; for antiserotoninergic action compared with clozapine: in words, action of reference clozapine
Description: 2. L-5-HTP antagonism (serotonin antagonism)
L-5-Hydroxytryptamine (L-5-HTP), a serotonin prodrug, causes in rats (316 mg/kg i.p.) a state of agitation which is characterized by signs such as head-shaking, tremor and movements of the forepaws. The animals are observed for 1 h after administration of L-5-HTP, and the signs are scored every 10 min. The test substances are administered orally 1 h before L-5-HTP; n/dose=6. The ED50 is calculated as the dose which brings about a mean reduction in the score of a control group by 50%.

[2] = tested on: orientation hypermotility; experiment: Sedative action (orientation hypermotility, mouse); assay type: in vivo, female NMRI mice; details: oral; for ED50: 0.5 h, 50% decrease in orientation hypermotility vs control, measured from 30 min after dosing for 30 min, read-out: Sedative action mouse ED 50; for sedative action compared with clozapine: in words, action of reference clozapine
Description: 4 to 8 groups each comprising 3 female NMRI mice receive the substances by oral administration. The orientation hypermotility induced by a new environment is determined photoelectrically 30 min after the administration of the substance for a period of 30 min.
The ED50 is determined as the dose which brings about a decrease in the orientation hypermotility of 50% compared with placebo-treated control animals.

physostigmine = experiment: Anticholinergic action (protection from lethal physostigmine); assay type: in vivo, female NMRI mice; details: oral, mouse, 30 min before physostigmine 0.825 mg/kg s.c.; protects 50% from death; read-out: Anticholinergic mouse ED 50
Description: 3. Anticholinergic action
Groups of 10 female NMRI mice receive physostigmine in a lethal dose (0.825 mg/kg) subcutaneously. The test substances are administered orally 30 min before the physostigmine administration. The ED50 is determined as the dose of substance which protects 50% of the animals from death due to physostigmine.

dopamine D1 receptor = molecular target: T1, dopamine D1 receptor (Bos taurus, UniProt Q95136); experiment: Affinity to dopamine D1 receptor, competitive assay, 3H-SCH 23390; assay type: binding, bovine
T1 construct: bovine nucleus caudatus membranes; from tissue; host or cells: bovine caudate nucleus membranes
Description: (§1) 4. In vitro determination of the affinity to dopamine D1 and D2 receptors by means of competitive assays
(§2) The non-specific binding was determined using 10 μM (+)-butaclamol or using 1 μM haloperidol. After incubation at 30° C. for 60 min, the mixtures were filtered through glass fiber filters (GF/B, Whatman) and the amount of radioligand retained on the filter was determined by liquid scintillation measurement.

dopamine D2 receptor = molecular target: T2, dopamine D2 receptor (Bos taurus, UniProt P20288); experiment: Affinity to dopamine D2 receptor, competitive assay, 3H-spiperon; assay type: binding, bovine
T2 construct: bovine nucleus caudatus membranes; from tissue; host or cells: bovine caudate nucleus membranes
Description: as §1, §2

[3] = bovine nucleus caudatus membranes, pH 7.4, 30° C., 60 min, 1 nM radioligand, read-out: Affinity to D1 receptor, Inhibition of 3H-SCH 23 390 binding, Ki
[4] = bovine nucleus caudatus membranes, pH 7.4, 30° C., 60 min, 0.2 nM radioligand, read-out: Affinity to D2 receptor, Inhibition of 3H-spiperon binding, Ki

T2 sequence (P20288 whole entry): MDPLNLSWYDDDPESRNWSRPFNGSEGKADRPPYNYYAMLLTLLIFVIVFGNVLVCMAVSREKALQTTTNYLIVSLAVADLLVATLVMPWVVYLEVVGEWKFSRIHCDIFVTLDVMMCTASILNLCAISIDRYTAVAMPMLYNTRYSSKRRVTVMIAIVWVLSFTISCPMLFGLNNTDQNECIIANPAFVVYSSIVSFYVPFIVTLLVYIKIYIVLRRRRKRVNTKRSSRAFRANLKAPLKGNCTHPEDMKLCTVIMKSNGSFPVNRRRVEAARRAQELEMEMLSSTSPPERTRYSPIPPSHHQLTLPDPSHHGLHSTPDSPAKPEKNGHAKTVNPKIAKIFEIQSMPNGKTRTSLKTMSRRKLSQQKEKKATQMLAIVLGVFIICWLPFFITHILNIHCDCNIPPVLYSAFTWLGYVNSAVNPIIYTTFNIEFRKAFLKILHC
T1 sequence (Q95136 whole entry): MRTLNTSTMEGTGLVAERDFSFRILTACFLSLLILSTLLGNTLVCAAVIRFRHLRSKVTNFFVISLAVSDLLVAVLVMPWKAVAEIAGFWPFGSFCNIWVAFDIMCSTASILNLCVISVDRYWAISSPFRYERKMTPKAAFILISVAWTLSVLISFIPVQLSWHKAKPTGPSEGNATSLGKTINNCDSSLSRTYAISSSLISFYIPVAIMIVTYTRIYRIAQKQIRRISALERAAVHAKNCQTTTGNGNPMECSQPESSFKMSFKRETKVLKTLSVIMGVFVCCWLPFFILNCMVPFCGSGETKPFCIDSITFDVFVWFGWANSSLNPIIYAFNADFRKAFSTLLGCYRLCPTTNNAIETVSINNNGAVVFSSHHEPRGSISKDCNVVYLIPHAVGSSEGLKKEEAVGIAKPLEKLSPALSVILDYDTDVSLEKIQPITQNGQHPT

SMILES	ED50 [1]	ED50 [2]	ED50 (physostigmine)	pKi (dopamine D1 receptor; [3])	pKi (dopamine D2 receptor; [4])	antiserotoninergic action compared with clozapine [1]	sedative action compared with clozapine [2]	pKi (dopamine D1 receptor)	pKi (dopamine D2 receptor)
CN1CCN(C2=Nc3cc(Cl)ccc3/C(=C/C#N)c3cn(C)cc32)CC1 [Example 3a, (E)-7-Chloro-10-cyanomethylene-2-methyl-4-(4-methyl-1-piperazinyl)pyrrolo[4,3-e]benzazepine]	0.29 mg/kg	0.67 mg/kg	–	–	–	–	–	–	–
CN1CCN(C2=Nc3cc(Cl)ccc3C(=CC#N)c3cn(Cc4ccccc4)cc32)CC1 [Example 11, (E),(Z)-7-Chloro-2-benzyl-10-cyanomethylene-4-(4-methyl-1-piperazinyl)pyrrolo[4,3-e]benzazepine]	–	35 mg/kg	> 100 mg/kg	7.89	~6.00	–	–	–	–
CN1CCN(C2=Nc3cc(Cl)ccc3C(=CC#N)c3cn(C)cc32)CC1 [Example 3, (E),(Z)-7-Chloro-10-cyanomethylene-2-methyl-4-(4-methyl-1-piperazinyl)pyrrolo[4,3-e]benzazepine]	0.2 mg/kg	0.82 mg/kg	17.5 mg/kg	7.70	~6.00	reached or exceeded	reached or exceeded	–	–
CN1CCN(C2=Nc3cc(Cl)ccc3Nc3ccccc32)CC1 [Clozapine, clozapine, reference compound]	6.3 mg/kg	3.8 mg/kg	–	–	–	–	–	–	–
CCN1CCN(C2=Nc3ccccc3C(=CC#N)c3cn(C)cc32)CC1 [Example 12, (E),(Z)-10-Cyanomethylene-2-methyl-4-(4-ethyl-1-piperazinyl)pyrrolo[4,3-e]benzazepine]	3.3 mg/kg	4.7 mg/kg	16.7 mg/kg	7.68	~5.70	reached or exceeded	–	–	–
CN1CCN(C2=Nc3ccccc3C(=CC#N)c3cn(Cc4ccccc4)cc32)CC1 [Example 9, (E),(Z)-10-Cyanomethylene-2-benzyl-4-(4-methyl-1-piperazinyl)pyrrolo[4,3-e]benzazepine]	46.4 mg/kg	29.8 mg/kg	> 46.4 mg/kg	8.47	~6.00	–	–	–	–
CN1CCN(C2=Nc3ccccc3/C(=C/C#N)c3cn(C)cc32)CC1 [Example 1a, 10-Cyanomethylene-2-methyl-4-(4-methyl-1-piperazinyl)pyrrolo[4,3-e]benzazepine]	1.18 mg/kg	2.96 mg/kg	> 21.5 mg/kg	–	–	reached or exceeded	reached or exceeded	7.98	~5.70
